Patent US5714467A, “Antibacterial and antimalarial hybrid peptides” (The Rockefeller University, priority 1993, dated 1998)
Where no end group is shown, it is not given here.

Test system: Sheep Red Cells
Experiment: lysis of sheep red blood cells (lysis assay or SRC plate assay)
Format: cell-based
Settings: for Lethal concentration, SRC = Sheep Red Cells: Table 3; for concentration lytic to sheep red blood cells: running text
Method: These values were obtained by either the lysis assay normally used for melittin or by an adaptation of the antibacterial inhibition zone assay of the above-cited Hultmark et al articles to plates with sheep red cells (SRC). With respect to the latter, sterile agarose plates contained 6 ml of medium With 1% agarose, 0.9% NaCl and 10% SRC suspended in Alsevers solution. A dilution series of peptide was applied in 3 mm wells each loaded with 3 μl of the respective samples. The plates were incubated at 30° C. for 24 h, the zones were recorded and LC values calculated as described in the Hultmark et al articles. Clear zones were recorded after a few hours of incubation and the use of such data gave an LC value of the same order as readings after 24 h. This plate assay is faster and more convenient than the lysis assay normally used for melittin.

[1] = Table 2, no incubation footnote
[2] = Table 2, footnote a: incubation overnight at 30° C. as well as at 37° C.

Compound	Lethal concentration, Sheep Red Cells [1] [µM]	Lethal concentration, SRC = Sheep Red Cells [µM]	also measured
CC[C@H](C)[C@H](NC(=O)CN)C(=O)NCC(=O)N[C@@H](C)C(=O)N[C@H](C(=O)N[C@@H](CC(C)C)C(=O)N[C@@H](CCCCN)C(=O)N[C@H](C(=O)N[C@@H](CC(C)C)C(=O)N[C@H](C(=O)N[C@H](C(=O)NCC(=O)N[C@@H](CC(C)C)C(=O)N[C@@H](CCCCN)C(=O)N[C@@H](Cc1c[nH]c2ccccc12)C(=O)N[C@@H](CCCCN)C(=O)N[C@@H](CC(C)C)C(=O)N[C@@H](Cc1ccccc1)C(=O)N[C@@H](CCCCN)C(=O)N[C@@H](CCCCN)C(=O)N[C@H](C(=O)N[C@@H](CCC(=O)O)C(=O)N[C@@H](CCCCN)C(=O)N[C@H](C(=O)NCC(=O)N[C@@H](CCC(N)=O)C(N)=O)C(C)C)[C@@H](C)CC)[C@@H](C)O)[C@@H](C)O)C(C)C)C(C)C [M(1-13)CA(1-13)]	80	80	
CC[C@H](C)[C@H](NC(=O)CNC(=O)[C@@H](NC(=O)[C@H](CCCCN)NC(=O)[C@H](CCCCN)NC(=O)[C@H](Cc1ccccc1)NC(=O)[C@H](CC(C)C)NC(=O)[C@H](CCCCN)NC(=O)[C@H](Cc1c[nH]c2ccccc12)NC(=O)[C@@H](N)CCCCN)[C@@H](C)CC)C(=O)NCC(=O)N[C@@H](C)C(=O)N[C@H](C(=O)N[C@@H](CC(C)C)C(=O)N[C@@H](CCCCN)C(=O)N[C@H](C(=O)N[C@@H](CC(C)C)C(=O)N[C@H](C(=O)N[C@H](C(=O)NCC(=O)N[C@@H](CC(C)C)C(=O)N1CCC[C@H]1C(=O)N[C@@H](C)C(=O)N[C@@H](CC(C)C)C(=O)N[C@H](C(=O)N[C@@H](CO)C(N)=O)[C@@H](C)CC)[C@@H](C)O)[C@@H](C)O)C(C)C)C(C)C [CA(1-8)M(1-18)]		600	
CC[C@H](C)[C@H](NC(=O)CNC(=O)[C@H](CCC(N)=O)NC(=O)[C@H](CCC(N)=O)NC(=O)[C@H](CCCNC(=N)N)NC(=O)[C@H](CCCCN)NC(=O)[C@H](CCCNC(=N)N)NC(=O)[C@H](CCCCN)NC(=O)[C@@H](NC(=O)[C@H](Cc1c[nH]c2ccccc12)NC(=O)[C@H](CO)NC(=O)[C@@H](NC(=O)[C@@H](N)CC(C)C)[C@@H](C)CC)[C@@H](C)CC)C(=O)NCC(=O)N[C@@H](C)C(=O)N[C@H](C(=O)N[C@@H](CC(C)C)C(=O)N[C@@H](CCCCN)C(=O)N[C@H](C(=O)N[C@@H](CC(C)C)C(=O)N[C@H](C(=O)N[C@H](C(=O)NCC(=O)N[C@@H](CC(C)C)C(N)=O)[C@@H](C)O)[C@@H](C)O)C(C)C)C(C)C [M(16-26)M(1-13)]			improvement in red cell lysis concentration over natural melittin (240 μM versus 4-6 μM): 40-60 fold; Lethal concentration, Sheep Red Cells [2]: > 200 µM; concentration lytic to sheep red blood cells: > 240 µM
KWKLFKKIGIGAVLKVLT-NH2 [CA(1-8)M(1-10)]	> 600		
CC[C@H](C)[C@H](NC(=O)[C@H](CC(C)C)NC(=O)[C@H](C)NC(=O)[C@@H]1CCCN1C(=O)[C@H](CC(C)C)NC(=O)CNC(=O)[C@@H](NC(=O)[C@@H](NC(=O)[C@H](CC(C)C)NC(=O)[C@@H](NC(=O)[C@H](CCCCN)NC(=O)[C@H](CC(C)C)NC(=O)[C@@H](NC(=O)[C@H](C)NC(=O)CNC(=O)[C@@H](NC(=O)CNC(=O)[C@H](CCC(=O)O)NC(=O)[C@@H](NC(=O)[C@H](CCCCN)NC(=O)[C@H](CCCCN)NC(=O)[C@H](Cc1ccccc1)NC(=O)[C@H](CC(C)C)NC(=O)[C@H](CCCCN)NC(=O)[C@H](Cc1c[nH]c2ccccc12)NC(=O)[C@@H](N)CCCCN)[C@@H](C)CC)[C@@H](C)CC)C(C)C)C(C)C)[C@@H](C)O)[C@@H](C)O)C(N)=O [CA(1-9)M(1-17)]		600	
KWKLFKKAVLKVLTT-NH2 [CA(1-7)M(4-11)]	> 600		
CC[C@H](C)[C@H](NC(=O)[C@H](CCC(N)=O)NC(=O)[C@@H](NC(=O)[C@H](C)NC(=O)[C@H](CCC(N)=O)NC(=O)CNC(=O)[C@@H](NC(=O)[C@@H](NC(=O)[C@H](C)NC(=O)[C@@H](NC(=O)[C@H](C)N)C(C)C)C(C)C)C(C)C)[C@@H](C)O)C(=O)N[C@@H](C)C(=O)N[C@@H](CCCCN)C(=O)N[C@@H](CCCCN)C(=O)N[C@@H](Cc1c[nH]c2ccccc12)C(=O)N[C@@H](CCCCN)C(=O)N[C@@H](CC(C)C)C(=O)N[C@@H](Cc1ccccc1)C(=O)N[C@@H](CCCCN)C(=O)N[C@@H](CCCCN)C(=O)N[C@H](C(=O)N[C@@H](CCC(=O)O)C(=O)N[C@@H](CCCCN)C(=O)N[C@H](C(=O)NCC(=O)N[C@@H](CCC(N)=O)C(N)=O)C(C)C)[C@@H](C)CC [CA(25-37)CA(1-13)]			Lethal concentration, Sheep Red Cells (Table 2, footnote b: incubation overnight at 30° C.): > 300 µM
KWKLFKKIGAVLKVL-NH2 [CA(1-7)M(2-9)]	> 600		
KWKLFKKIEKVGQNIRDGGIGAVLKV-NH2 [CA(1-18)M(1-8)]		600	
KWKLFKKVLKVLTTG-NH2 [CA(1-7)M(5-12)]	> 500		
KWKLFKKGAVLKVLT-NH2 [CA(1-7)M(3-10)]	> 600		
CC[C@H](C)[C@H](NC(=O)CNC(=O)[C@@H](NC(=O)[C@H](CCCCN)NC(=O)[C@H](CCCCN)NC(=O)[C@H](Cc1ccccc1)NC(=O)[C@H](CC(C)C)NC(=O)[C@H](CCCCN)NC(=O)[C@H](Cc1c[nH]c2ccccc12)NC(=O)[C@@H](N)CCCCN)[C@@H](C)CC)C(=O)NCC(=O)N[C@@H](C)C(=O)N[C@H](C(=O)N[C@@H](CC(C)C)C(=O)N[C@@H](CCCCN)C(=O)N[C@H](C(=O)N[C@@H](CC(C)C)C(=O)N[C@H](C(=O)N[C@H](C(=O)NCC(N)=O)[C@@H](C)O)[C@@H](C)O)C(C)C)C(C)C [CA(1-8)M(1-12)]	> 600		
CC[C@H](C)[C@H](NC(=O)CNC(=O)[C@H](CCC(N)=O)NC(=O)CNC(=O)[C@@H](NC(=O)[C@H](CCCCN)NC(=O)[C@H](CCC(=O)O)NC(=O)[C@@H](NC(=O)[C@H](CCCCN)NC(=O)[C@H](CCCCN)NC(=O)[C@H](Cc1ccccc1)NC(=O)[C@H](CC(C)C)NC(=O)[C@H](CCCCN)NC(=O)[C@H](Cc1c[nH]c2ccccc12)NC(=O)[C@@H](N)CCCCN)[C@@H](C)CC)C(C)C)C(=O)NCC(=O)N[C@@H](C)C(=O)N[C@H](C(=O)N[C@@H](CC(C)C)C(=O)N[C@@H](CCCCN)C(=O)N[C@H](C(=O)N[C@@H](CC(C)C)C(=O)N[C@H](C(=O)N[C@H](C(=O)NCC(=O)N[C@@H](CC(C)C)C(N)=O)[C@@H](C)O)[C@@H](C)O)C(C)C)C(C)C [CA(1-13)M(1-13)]			Lethal concentration, Sheep Red Cells [2]: > 200 µM; concentration lytic to sheep red blood cells: ≥ 100 µM; concentration lytic to sheep red blood cells (listed as CA(1-13) M(1-13)): greater than 200 μM
KWKLFKKIEKVGQNIRDGIGAVLKVL-NH2 [CA(1-17)M(1-9)]		600	
CC[C@H](C)[C@H](NC(=O)CNC(=O)[C@@H]1CCCN1C(=O)CNC(=O)[C@H](C)NC(=O)[C@H](CCCCN)NC(=O)[C@@H](NC(=O)[C@@H](NC(=O)CNC(=O)[C@H](CC(=O)O)NC(=O)[C@H](CCCNC(=N)N)NC(=O)[C@@H](NC(=O)[C@H](CC(N)=O)NC(=O)[C@H](CCC(N)=O)NC(=O)CNC(=O)[C@@H](NC(=O)[C@H](CCCCN)NC(=O)[C@H](CCC(=O)O)NC(=O)[C@@H](NC(=O)[C@H](CCCCN)NC(=O)[C@H](CCCCN)NC(=O)[C@H](Cc1ccccc1)NC(=O)[C@H](CC(C)C)NC(=O)[C@H](CCCCN)NC(=O)[C@H](Cc1c[nH]c2ccccc12)NC(=O)[C@@H](N)CCCCN)[C@@H](C)CC)C(C)C)[C@@H](C)CC)[C@@H](C)CC)[C@@H](C)CC)C(=O)NCC(=O)N[C@@H](C)C(=O)N[C@H](C(=O)N[C@@H](CC(C)C)C(=O)N[C@@H](CCCCN)C(=O)N[C@H](C(=O)N[C@@H](CC(C)C)C(=O)N[C@H](C(=O)N[C@H](C(=O)NCC(=O)N[C@@H](CC(C)C)C(N)=O)[C@@H](C)O)[C@@H](C)O)C(C)C)C(C)C [CA(1-24)M(1-13)]			Lethal concentration, Sheep Red Cells [2]: > 200 µM; concentration lytic to sheep red blood cells: ≥ 100 µM
CC[C@H](C)[C@H](NC(=O)CNC(=O)[C@H](CCCNC(=N)N)NC(=O)CNC(=O)[C@H](CCSC)NC(=O)[C@H](CCCCN)NC(=O)[C@H](CCC(=O)O)NC(=O)[C@@H](NC(=O)[C@H](CCCCN)NC(=O)[C@H](CCCCN)NC(=O)[C@H](Cc1ccccc1)NC(=O)[C@@H](NC(=O)[C@H](CCCCN)NC(=O)[C@H](Cc1c[nH]c2ccccc12)NC(=O)[C@@H](N)CCCCN)C(C)C)[C@@H](C)CC)C(=O)NCC(=O)N[C@@H](C)C(=O)N[C@H](C(=O)N[C@@H](CC(C)C)C(=O)N[C@@H](CCCCN)C(=O)N[C@H](C(=O)N[C@@H](CC(C)C)C(=O)N[C@H](C(=O)N[C@H](C(=O)NCC(=O)N[C@@H](CC(C)C)C(N)=O)[C@@H](C)O)[C@@H](C)O)C(C)C)C(C)C [CB(1-13)M(1-13)]		400	
CC[C@H](C)[C@H](NC(=O)CN)C(=O)NCC(=O)N[C@@H](C)C(=O)N[C@H](C(=O)N[C@@H](CC(C)C)C(=O)N[C@@H](CCCCN)C(=O)N[C@H](C(=O)N[C@@H](CC(C)C)C(=O)N[C@H](C(=O)N[C@H](C(=O)NCC(=O)N[C@@H](CC(C)C)C(=O)N[C@@H](CCCCN)C(=O)N[C@@H](Cc1c[nH]c2ccccc12)C(=O)N[C@@H](CCCCN)C(=O)N[C@@H](CC(C)C)C(=O)N[C@@H](Cc1ccccc1)C(=O)N[C@@H](CCCCN)C(=O)N[C@@H](CCCCN)C(=O)N[C@H](C(=O)N[C@@H](CCC(=O)O)C(=O)N[C@@H](CCCCN)C(=O)N[C@H](C(=O)NCC(=O)N[C@@H](CCC(N)=O)C(=O)N[C@@H](CC(N)=O)C(=O)N[C@H](C(=O)N[C@@H](CCCNC(=N)N)C(=O)N[C@@H](CC(=O)O)C(=O)NCC(=O)N[C@H](C(=O)N[C@H](C(=O)N[C@@H](CCCCN)C(=O)N[C@@H](C)C(N)=O)[C@@H](C)CC)[C@@H](C)CC)[C@@H](C)CC)C(C)C)[C@@H](C)CC)[C@@H](C)O)[C@@H](C)O)C(C)C)C(C)C [M(1-13)CA(1-22)]		40	
KWKLFKKLKVLTTGL-NH2 [CA(1-7)M(6-13)]	> 500		
KWKLFKKGIGAVLKV-NH2 [CA(1-7)M(1-8)]	> 200		
